Laboratory results published in US20190367516A1 (Bayer Pharma Aktiengesellschaft, priority 2015, published 2019).
Like-named read-outs stand apart in the source and are kept apart here.

Tests used:
[1] = molecular target: T1, human M2 receptor (Homo sapiens, UniProt P08172); type: cell-based; conditions: α >1 = positive cooperativity
T1 sequence (P08172 1-466): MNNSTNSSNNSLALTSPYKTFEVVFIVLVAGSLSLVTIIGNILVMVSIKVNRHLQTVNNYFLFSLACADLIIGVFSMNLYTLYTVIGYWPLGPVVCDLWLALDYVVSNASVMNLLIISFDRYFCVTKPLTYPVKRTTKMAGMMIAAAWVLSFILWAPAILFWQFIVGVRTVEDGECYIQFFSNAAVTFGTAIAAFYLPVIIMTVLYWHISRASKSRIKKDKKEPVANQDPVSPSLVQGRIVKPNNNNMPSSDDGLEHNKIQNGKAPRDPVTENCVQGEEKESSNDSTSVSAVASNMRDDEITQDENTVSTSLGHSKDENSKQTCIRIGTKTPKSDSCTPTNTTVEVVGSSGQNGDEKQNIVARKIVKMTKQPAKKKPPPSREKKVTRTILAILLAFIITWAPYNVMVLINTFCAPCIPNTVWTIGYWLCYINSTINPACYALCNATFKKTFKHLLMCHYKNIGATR

[2] = system: anaesthetized rats; assay: Effects on the heart rate in anaesthetized rats (B-9); type: in vivo, rat; conditions: i.v. infusion via jugular vein over 5 min, dose not given, in some cases means of several determinations
Experimental: B-9. Effects of the Test Substances on the Heart Rate in Anaesthetized Rats
Male rats of the strain (WI) WU Br from the breeder Charles River are anaesthetized initially with a 4-5% isoflurane inhalation for approx. 3 min. Subsequently, anaesthesia is maintained using a 1.5% isoflurane inhalation. For this purpose, the anaesthetized animals are fixed on a heated operating plate. By means of visual inspection and between toe reflex, the depth of anaesthesia is checked.
For the application of the test substance, an i.v. route into the jugular vein is used. A caudal to cranial skin incision is then made longitudinally and both the cervical musculature and the salivary glands are severed. The right common carotid artery is exposed and blood supply is arrested both proximally and distally. Using microinstrumentation, a TIP catheter (1.2 F) is introduced into the vessel in order to measure the arterial pressure and the heart rate.
Initially, both parameters are monitored for 10 min in the basal state without substance addition. The substances to be investigated are dissolved in suitable solvent mixtures and subsequently administered at various dosages to a group of animals in each case via the jugular vein by an infusion pump over 5 min. A solvent-treated group is used as control under the same experimental conditions. The arterial blood pressure and heart rate with substance addition is determined for 20 min. The data are registered with the PowerLab system (AD instruments) and evaluated using the LabChart program (AD instruments).
The values determined in this manner for the percentage decrease in heart rate for individual working examples are given in Table 4 below (in some cases as means of a plurality of independent individual determinations): […]

[3] = molecular target: T1, human M2 receptor; conditions: for Efficiency: boosting of the acetylcholine effect at EC20 acetylcholine concentration
[4] = shift of acetylcholine dose-response curve (Allosteric EC50 shift)
[5] = Receptor activity EC50, allosteric potency at EC20 acetylcholine, M2-GIRK1/4 reporter cells, in some cases mean of two or more determinations
[6] = shift in the acetylcholine dose-response curve (Allosteric EC50 shift, GraphPad PRISM)
[7] = Receptor activity EC50, M2-GIRK1/4 activation test, acetylcholine at EC20, allosteric potency, in some cases mean values from two or more determinations
[8] = read-out: Efficiency, boosting of the acetylcholine effect at EC20 acetylcholine concentration, M2-GIRK1/4 reporter cells

| SMILES | Cooperativity (alpha factor) [1, 4] | Reduction in heart rate (%) [2] | EC50 [3, 5] | Efficiency ([3]; M2-GIRK1/4 reporter cells) | Cooperativity (alpha factor) [1, 6] | EC50 [3, 7] | Emax ([3]; read-out: Efficiency) | Emax [3, 8] |
| --- | --- | --- | --- | --- | --- | --- | --- | --- |
| CC(NC(=O)c1cn(-c2c(F)cc(F)cc2F)c2nc(N3CCNC3=O)ccc2c1=O)C(F)(F)C(F)(F)F (racemic) [Example 541, 4-Oxo-7-(2-oxoimidazolidin-1-yl)-N-[3,3,4,4,4-pentafluorobutan-2-yl]-1-(2,4,6-trifluorophenyl)-1,4-dihydro-1,8-naphthyridine-3-carboxamide] | 31 | 14% | 7 nM | 92.2% | – | – | – | – |
| O=C(NC(c1ccccc1Cl)C(F)(F)F)c1cn(-c2ccc(F)cc2F)c2nc(N3C[C@@H](O)CC3=O)ccc2c1=O (single isomer, unassigned) [Example 212] | – | 11% | – | – | 54 | 41 nM | – | – |
| O=C(NC(c1ccccc1Cl)C(F)(F)F)c1cn(-c2ccc(F)cc2F)c2nc(N3C[C@@H](O)CC3=O)ccc2c1=O (single isomer, unassigned) [Example 213] | – | 14% | – | – | 55 | 19 nM | – | – |
| O=C(N[C@@H](C1CC1)C(F)(F)F)c1cn(-c2ccc(F)cc2F)c2nc(N3C[C@@H](O)CC3=O)ccc2c1=O (single isomer, unassigned) [Example 284] | – | 11% | – | – | – | 61 nM | – | – |
| O=C(N[C@H](C1CC1)C(F)(F)F)c1cn(-c2c(F)cccc2F)c2nc(N3C[C@@H](O)CC3=O)ccc2c1=O (single isomer, unassigned) [Example 296] | – | 11% | – | – | 49 | 28 nM | – | – |
| O=C(N[C@@H](C1CC1)C(F)(F)F)c1cn(-c2c(F)cccc2F)c2nc(N3C[C@@H](O)CC3=O)ccc2c1=O (single isomer, unassigned) [Example 297] | – | 10% | – | – | 47 | 37 nM | – | – |
| CC[C@H](NC(=O)c1cn(-c2c(F)cc(F)cc2Cl)c2nc(N3C[C@@H](O)CC3=O)ccc2c1=O)C(F)(F)F (single isomer, unassigned) [Example 400] | 32 | 11% | 5 nM | 100.0% | – | – | – | – |
| CC[C@H](NC(=O)c1cn(-c2ccc(F)cc2F)c2nc(N3C[C@@H](O)CC3=O)ccc2c1=O)C(F)(F)F [Example 174, 1-(2,4-Difluorophenyl)-7-[(4S)-4-hydroxy-2-oxopyrrolidin-yl]-4-oxo-N-[(2S)-1,1,1-trifluorobutan-2-yl]-1,4-dihydro-1,8-naphthyridine-3-carboxamide] | – | 7% | – | – | – | 113 nM | 98.6% | – |
| CC[C@@H](NC(=O)c1cn(-c2c(F)cccc2F)c2nc(N3C[C@@H](O)[C@@H](O)C3)ccc2c1=O)C(F)(F)F [Example 648, 1-(2,6-Difluorophenyl)-7-[(3R,4S)-3,4-dihydroxypyrrolidin-1-yl]-4-oxo-N-[(2R)-1,1,1-trifluorobutan-2-yl]-1,4-dihydro-1,8-naphthyridine-3-carboxamide] | 49 | – | 81 nM | – | – | – | – | 96.5% |
| COC(=O)[C@@H]1CN(c2ccc3c(=O)c(C(=O)N[C@@H](C4CC4)C(F)(F)F)cn(-c4c(F)cc(F)cc4F)c3n2)C(=O)O1 [Example 666, Methyl (5S)-3-[6-{[(1S)-1-cyclopropyl-2,2,2-trifluoroethyl]carbamoyl}-5-oxo-8-(2,4,6-trifluorophenyl)-5,8-dihydro-1,8-naphthyridin-2-yl]-2-oxo-1,3-oxazolidine-5-carboxylate] | 60 | – | 22 nM | – | – | – | – | 100% |
